Measurements as given in patent US20240042015A1 (Orna Therapeutics, Inc., priority 2020, published 2024).
Entries after “also recorded” stand apart in the source; their conditions may differ.

Legend:
splenic immune cells = assay: In vivo Cre circRNA LNP transfection in Ai9 Cre reporter mice, tdTomato+ splenic immune cells; conditions: 0.5 mg/kg RNA intravenously, 48 hr
Protocol: Circular RNAs encoding Cre recombinase (Cre) are encapsulated into lipid nanoparticles as previously described. Female, 6-8 week old B6.Cg-Gt(ROSA)26Sortm9(CAG-tdTomato)Hze/J (Ai9) mice were dosed with lipid nanoparticles at 0.5 mg/kg RNA intravenously. Fluorescent tdTomato protein was transcribed and translated in Ai9 mice upon Cre recombination, meaning circular RNAs have been delivered to and translated in tdTomato+ cells. After 48 hr, mice were euthanized and the spleens were harvested, processed into a single cell suspension, and stained with various fluorophore-conjugated antibodies for immunophenotyping via flow cytometry.
Ai9 mice injected with PBS represented background tdTomato fluorescence.
FIG. 45C illustrates the proportion of additional splenic immune cell populations expressing tdTomato with Lipids 10a-27 and 10a-26 (mean+std. dev., n=3), which also include NK cells (NKp46+, TCR-B−), classical monocytes (CD11b+, Ly-6G−, Ly-6C_hi), nonclassical monocytes (CD11b+, Ly-6G−, Ly-6C_lo), neutrophils (CD11b+, Ly-6G+), and dendritic cells (CD11c+, MHC-II+).
Ai9 mice (B6.Cg-Gt(ROSA)26Sortm9(CAG-tdTomato)Hze/J, female, 6-8 weeks, n=3 per group) were injected i.v. with 0.5 mg/kg Cre circRNA LNPs or PBS. Ai9 mice transcribe and translate the fluorescent reporter tdTomato upon Cre recombination; meaning cells which are tdTomato+ have successfully been transfected with Cre circRNA. After 48 hours, mice were euthanized and their spleens were collected and manually processed into single cell suspensions. The splenocytes were stained for dead cells (LiveDead Fixable Aqua, Thermo) and with anti-mouse antibodies (TCR-B chain, BV421, H57-597; CD45, BV711, 30-F11; CD11b, BV785, ICRF44; NKp46, AF647, 29A1.4; CD19, APC/750, 6D5; TruStain FcX, 93; all antibodies from Biolegend) at 1:200 ratio. Flow cytometry was performed using an Attune Nxt Flow Cytometer (Thermo).

CD-1 or c57BL/6J mice = assay: In vivo IVIS analysis of FLuc circRNA LNPs (whole body and ex vivo organs); conditions: for spleen to liver ratios: ex vivo IVIS analysis of tissues
Protocol: (§1) Lipid Nanoparticles (LNPs) were formed using a Precision Nanosystems Ignite instrument with a ‘NextGen’ mixing chamber. […] A 3:1 aqueous to ethanol mixing ratio was used. The formulated LNP then were dialyzed in 1 L of water and exchanged 2 times over 18 hours. Dialyzed LNPs were filtered using 0.2 µm filter. Prior to in vivo dosing, LNPs were diluted in PBS. LNP sizes were determined by dynamic light scattering. A cuvette with 1 mL of 20 μg/mL LNPs in PBS (pH 7.4) was measured for Z-average using the Malvern Panalytical Zetasizer Pro. The Z-average and polydispersity index were recorded.
as §1, with “formulated LNPs were” for “formulated LNP”, “then” for “then were”
as §1, with “formulated LNPs were” for “formulated LNP”, “then” for “then were”, “of 1×PBS” for “of water”
Female CD-1 or female c57BL/6J mice ranging from 22-25 g were dosed at 0.5 mg/kg RNA intravenously. Six hours after injection, mice were injected intraperitoneally with 200 μL of D-luciferin at 15 mg/mL concentration. 5 minutes after injection, mice were anesthetized using isoflurane, and placed inside the IVIS Spectrum In Vivo Imaging System (Perkin Elmer) with dorsal side up. Post 10 minutes injection, mice were scanned for luminescence. Mice were euthanized and organs were extracted within 25 minutes of luciferin injection to scan for luminescence in liver, spleen, kidneys, lungs, and heart. Images (FIGS. 33A-B, 34A-B, 35A-B) were analyzed using Living Images (Perkin Elmer) software. Regions of interest were drawn to obtain flux and average radiance and analyzed for biodistribution of protein expression (FIG. 32A-B).

primary human T cells = assay: LNP transfection of primary human activated T cells with FLuc circRNA with or without ApoE3; type: cell-based; conditions: 4 independent donors
Protocol: Primary human T cells from independent donors were stimulated with aCD3/aCD28 and allowed to proliferate for 6 days in the presence of human serum and IL-2. Then, 100,000 cells were plated in a 96 well plate and LNPs containing circRNA coding for Firefly Luciferase (FLuc) were added to the cells at 200 ng RNA/well with or without Apolipoprotein E3 (ApoE3). After 24-hour incubation, luminescence was quantified using the Bright-Glo Luciferase Assay System (Promega) according to manufacturer's instructions and background luminescence from cells not treated with LNPs was subtracted. […] (See Example 70 for LNP formulation procesure, e.g., for 10a-27 (5.7A), 10a-26 (5.7A), 10a-27 (4.5D), and 10a-26 (4.5D) LNPs.)

Compound | delivery of circular RNAs to splenic immune cell subsets (splenic immune cells) | spleen to liver ratios (CD-1 or c57BL/6J mice) | also measured
CCCCCCCCCOC(=O)CCCCCCCN(CCO)CCCCCCCC(=O)OC(CCCCCCCC)CCCCCCCC [Lipid 10b-15] | effective at delivering circular RNAs to many splenic immune cell subsets | maintaining the desired spleen to liver ratios | –
CCCCCCCCCOC(=O)CCCCCCCN(CCCCCCCC(=O)OC(CCCCCCCC)CCCCCCCC)CCCn1ccnc1C [Lipid 10a-54, heptadecan-9-yl 8-((3-(2-methyl-1H-imidazol-1-yl)propyl)(8-(nonyloxy)-8-oxooctyl)amino)octanoate] | – | maintaining the desired spleen to liver ratios | –
CCCCCCCCC(CCCCCC)C(=O)OCCCCCCN(CCCCCCOC(=O)C(CCCCCC)CCCCCCCC)CCCn1ccnc1 (stereo not drawn) [Lipid 10a-26, ((3-(1H-imidazol-1-yl)propyl)azanediyl)bis(hexane-6,1-diyl) bis(2-hexyldecanoate)] | effective at delivering circular RNAs to many splenic immune cell subsets | maintaining the desired spleen to liver ratios | proportion of splenic immune cells expressing tdTomato (transfection) (splenic immune cells): significantly higher myeloid and T cell transfection; ex vivo IVIS analysis of tissues, overall expression (CD-1 or c57BL/6J mice; 0.5 mg/kg RNA intravenously): increased overall expression; whole-body total flux (CD-1 or c57BL/6J mice; 0.5 mg/kg RNA intravenously, six hours, compared to LNPs made with lipids 22-S14 and 93-S14): increased whole-body total flux
CCCCCCCCCOC(=O)CCCCCCCN(CCCCCCCC(=O)OC(CCCCCCCC)CCCCCCCC)CCCn1ccnc1 [Lipid 10a-53, heptadecan-9-yl 8-((3-(1H-imidazol-1-yl)propyl)(8-(nonyloxy)-8-oxooctyl)amino)octanoate] | – | maintaining the desired spleen to liver ratios | –
CCCCCCCCC(CCCCCC)C(=O)OCCCCCCN(CCCCCCOC(=O)C(CCCCCC)CCCCCCCC)CCCn1ccnc1C (stereo not drawn) [Lipid 10a-27, ((3-(2-methyl-1H-imidazol-1-yl)propyl)azanediyl)bis(hexane-6,1-diyl) bis(2-hexyldecanoate)] | effective at delivering circular RNAs to many splenic immune cell subsets | – | proportion of splenic immune cells expressing tdTomato (transfection) (splenic immune cells; 0.5 mg/kg): significantly higher myeloid and T cell transfection; also recorded: transfect significantly more splenic immune cells; Firefly luminescence (primary human T cells): generally produced higher luminescence
